Legend:
Type in all cases: in vivo
[1] = tested on: Nightshade; assay: Test C preemergence; conditions: Rate 500 g/ha, visual evaluation after 12 to 14 days
[2] = tested on: lambsquarters (Chenopodium album); assay: Test C preemergence
Method in brief: (§1)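 Plants held in greenhouse for 12–14 days post-application are scored by eye against controls on a 0–100 control scale. Application timing: preemergence on sown seed, or postemergence on 2–18 cm plants.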

[3] = tested on: cocklebur (Xanthium strumarium); assay: Test C preemergence; conditions: preemergence
Method in brief: as §1

[4] = tested on: kochia (Kochia scoparia); assay: Test C preemergence
Method in brief: as §1

[5] = tested on: woolly cupgrass (Eriochloa villosa); assay: Test C preemergence
Method in brief: as §1

[6] = tested on: velvetleaf (Abutilon theophrasti); assay: Test C preemergence
Method in brief: as §1

[7] = tested on: soybean (Glycine max); assay: Test C preemergence
Method in brief: as §1

[8] = tested on: bermudagrass (Cynodon dactylon); assay: Test C preemergence
Method in brief: as §1

[9] = tested on: Nightshade; assay: Test C preemergence
[10] = tested on: common ragweed (Ambrosia elatior); assay: Test C preemergence
Method in brief: as §1

[11] = tested on: pigweed (Amaranthus retroflexus); assay: Test C preemergence
Method in brief: as §1

[12] = tested on: Sunflower; assay: Test C preemergence; conditions: Rate 125 g/ha; scale 0 to 100, 0 no effect, 100 complete control
[13] = tested on: corn (Zea mays); assay: Test C preemergence
Method in brief: as §1

[14] = tested on: yellow nutsedge (Cyperus esculentus); assay: Test C preemergence
Method in brief: as §1

[15] = tested on: morningglory (Ipomoea hederacea); assay: Test C preemergence
Method in brief: as §1

[16] = tested on: johnsongrass (Sorghum halepense); assay: Test C preemergence
Method in brief: as §1

[17] = tested on: goosegrass (Eleusine indica); assay: Test C preemergence
Method in brief: as §1

[18] = tested on: giant foxtail (Setaria faberii); assay: Test C preemergence
Method in brief: as §1

[19] = tested on: Surinam grass (Brachiaria decumbens); assay: Test C preemergence
Method in brief: as §1

[20] = tested on: crabgrass (Digitaria sanguinalis); assay: Test C preemergence
Method in brief: as §1

[21] = tested on: duck salad (Heteranthera limosa); assay: Test C flooded paddy test; conditions: for Ducksalad plant response rating: Flooded Paddy, scale 0 to 100, 0 no effect, 100 complete control; for Plant response rating, Ducksalad: flooded paddy test, scale 0 to 100 (0 no effect, 100 complete control)
Method in brief: (§2)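 Each species was cultivated to 2 leaves in flooded paddy pots, then treated. After a greenhouse period of 12–14 days, the plants were scored visually relative to controls from 0 (no effect) to 100 (complete control).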

[22] = tested on: rice (Oryza saliva); assay: Test C flooded paddy test; conditions: for Rice plant response rating: Flooded Paddy, scale 0 to 100, 0 no effect, 100 complete control; for Plant response rating, Rice: flooded paddy test, scale 0 to 100 (0 no effect, 100 complete control)
Method in brief: as §2

[23] = tested on: smallflower flatsedge (Cyperus difformis); assay: Test C flooded paddy test; conditions: for Flatsedge plant response rating: Flooded Paddy, scale 0 to 100, 0 no effect, 100 complete control; for Plant response rating, Flatsedge: flooded paddy test, scale 0 to 100 (0 no effect, 100 complete control)
Method in brief: as §2

[24] = Rate 125 g/ha, scale 0 to 100, 0 no effect, 100 complete control
[25] = preemergence, Rate 62 g/ha, scale 0 to 100
[26] = preemergence, Rate 500 g/ha, visual evaluation after 12 to 14 days
[27] = preemergence, Rate 250 g/ha, scale 0 to 100, 0 no effect, 100 complete control
[28] = Rate 250 g/ha, scale 0 to 100, 0 no effect, 100 complete control

**Q.** How did the “Plant response rating (0 to 100), Nightshade” value [1] turn out when CCC(C)c1ccn(C2CCN(c3ccc(Cl)c(OC)c3)C2=O)n1 (centres unmarked) [Compound 119] was run?
**A.** 100

**Q.** What about the “Plant response rating, Lambsquarters” value [2, 24] of the same compound?
**A.** 100

**Q.** What about the “Plant response rating, Lambsquarters” value [2, 25] of the same compound?
**A.** 100

**Q.** What about the “Plant response rating (0 to 100), Lambsquarters” value [2, 26] of the same compound?
**A.** 100

**Q.** And the “Plant response rating, Lambsquarters” value [2, 27]?
**A.** 100

**Q.** And the “Plant response rating (0 to 100), Cocklebur” value ([3]; Rate 500 g/ha, visual evaluation after 12 to 14 days)?
**A.** 50

**Q.** What about the “Plant response rating, Cocklebur” value [3, 28] of the same compound?
**A.** 20

**Q.** And the “Plant response rating, Kochia” value [4, 24]?
**A.** 100

**Q.** And the “Plant response rating, Kochia” value [4, 25]?
**A.** 100

**Q.** What about the “Plant response rating (0 to 100), Kochia” value [4, 26] of the same compound?
**A.** 100

**Q.** What about the “Plant response rating, Kochia” value [4, 27] of the same compound?
**A.** 100

**Q.** What about the “Plant response rating, Cupgrass, Woolly” value [5, 24] of the same compound?
**A.** 100

**Q.** What about the “Plant response rating, Cupgrass, Woolly” value [5, 25] of the same compound?
**A.** 100

**Q.** And the “Plant response rating (0 to 100), Cupgrass, Woolly” value [5, 26]?
**A.** 100

**Q.** And the “Plant response rating, Cupgrass, Woolly” value [5, 27]?
**A.** 100

**Q.** And the “Plant response rating, Velvetleaf” value [6, 24]?
**A.** 100

**Q.** What about the “Plant response rating, Velvetleaf” value [6, 25] of the same compound?
**A.** 60

**Q.** What about the “Plant response rating (0 to 100), Velvetleaf” value [6, 26] of the same compound?
**A.** 100

**Q.** What about the “Plant response rating, Velvetleaf” value [6, 27] of the same compound?
**A.** 100

**Q.** And the “Plant response rating, Soybean” value [7, 24]?
**A.** 80

**Q.** And the “Plant response rating, Soybean” value [7, 25]?
**A.** 60

**Q.** What about the “Plant response rating (0 to 100), Soybean” value [7, 26] of the same compound?
**A.** 100

**Q.** And the “Plant response rating, Soybean” value [7, 27]?
**A.** 100

**Q.** What about the “Plant response rating, Bermudagrass” value [8, 24] of the same compound?
**A.** 100

**Q.** And the “Plant response rating, Bermudagrass” value [8, 25]?
**A.** 100

**Q.** And the “Plant response rating (0 to 100 where 0 is no effect and 100 is complete control), Bermudagrass” value [8, 26]?
**A.** 100

**Q.** And the “Plant response rating, Bermudagrass” value [8, 27]?
**A.** 100

**Q.** What about the “Plant response rating, Nightshade” value ([9]; Rate 62 g/ha, scale 0 to 100) of the same compound?
**A.** 100

**Q.** What about the “Plant response rating, Nightshade” value [9, 24] of the same compound?
**A.** 100

**Q.** What about the “Plant response rating, Nightshade” value [9, 28] of the same compound?
**A.** 100

**Q.** What about the “Plant response rating, Ragweed, Common” value [10, 24] of the same compound?
**A.** 100

**Q.** What about the “Plant response rating, Ragweed, Common” value [10, 25] of the same compound?
**A.** 100

**Q.** And the “Plant response rating (0 to 100), Ragweed, Common” value [10, 26]?
**A.** 100

**Q.** And the “Plant response rating, Ragweed, Common” value [10, 27]?
**A.** 100

**Q.** What about the “Plant response rating, Pigweed” value [11, 24] of the same compound?
**A.** 50

**Q.** What about the “Plant response rating, Pigweed” value [11, 25] of the same compound?
**A.** 50

**Q.** What about the “Plant response rating (0 to 100), Pigweed” value [11, 26] of the same compound?
**A.** 100

**Q.** And the “Plant response rating, Pigweed” value [11, 27]?
**A.** 90

**Q.** And the “Plant response rating, Sunflower” value [12]?
**A.** 40

**Q.** What about the “Plant response rating, Corn” value [13, 24] of the same compound?
**A.** 30

**Q.** What about the “Plant response rating, Corn” value [13, 25] of the same compound?
**A.** 30

**Q.** And the “Plant response rating (0 to 100), Corn” value [13, 26]?
**A.** 90

**Q.** And the “Plant response rating, Corn” value [13, 27]?
**A.** 60

**Q.** What about the “Plant response rating, Nutsedge” value [14, 24] of the same compound?
**A.** 20

**Q.** And the “Plant response rating, Nutsedge” value [14, 25]?
**A.** 0

**Q.** What about the “Plant response rating (0 to 100), Nutsedge” value [14, 26] of the same compound?
**A.** 30

**Q.** What about the “Plant response rating, Nutsedge” value [14, 27] of the same compound?
**A.** 30

**Q.** What about the “Plant response rating, Morningglory” value [15, 24] of the same compound?
**A.** 90

**Q.** And the “Plant response rating, Morningglory” value [15, 25]?
**A.** 60

**Q.** What about the “Plant response rating (0 to 100), Morningglory” value [15, 26] of the same compound?
**A.** 100

**Q.** What about the “Plant response rating, Morningglory” value [15, 27] of the same compound?
**A.** 100

**Q.** And the “Plant response rating, Johnsongrass” value [16, 24]?
**A.** 100

**Q.** And the “Plant response rating, Johnsongrass” value [16, 25]?
**A.** 90

**Q.** What about the “Plant response rating (0 to 100), Johnsongrass” value [16, 26] of the same compound?
**A.** 100

**Q.** And the “Plant response rating, Johnsongrass” value [16, 27]?
**A.** 100

**Q.** What about the “Plant response rating, Goosegrass” value [17, 24] of the same compound?
**A.** 100

**Q.** And the “Plant response rating, Goosegrass” value [17, 25]?
**A.** 100

**Q.** And the “Plant response rating (0 to 100), Goosegrass” value [17, 26]?
**A.** 100

**Q.** And the “Plant response rating, Goosegrass” value [17, 27]?
**A.** 100

**Q.** What about the “Plant response rating, Foxtail, Giant” value [18, 24] of the same compound?
**A.** 100

**Q.** What about the “Plant response rating, Foxtail, Giant” value [18, 25] of the same compound?
**A.** 50

**Q.** And the “Plant response rating (0 to 100), Foxtail, Giant” value [18, 26]?
**A.** 100

**Q.** What about the “Plant response rating, Foxtail, Giant” value [18, 27] of the same compound?
**A.** 90

**Q.** And the “Plant response rating, Surinam grass” value [19, 24]?
**A.** 100

**Q.** And the “Plant response rating, Surinam grass” value [19, 25]?
**A.** 100

**Q.** And the “Plant response rating (0 to 100), Surinam grass” value [19, 26]?
**A.** 100

**Q.** And the “Plant response rating, Surinam grass” value [19, 27]?
**A.** 100

**Q.** And the “Plant response rating, Crabgrass” value [20, 24]?
**A.** 100

**Q.** What about the “Plant response rating, Crabgrass” value [20, 25] of the same compound?
**A.** 100

**Q.** What about the “Plant response rating (0 to 100), Crabgrass” value [20, 26] of the same compound?
**A.** 100

**Q.** What about the “Plant response rating, Crabgrass” value [20, 27] of the same compound?
**A.** 100

**Q.** And the “Ducksalad plant response rating” value ([21]; Rate 250 g/ha)?
**A.** 90

**Q.** What about the “Ducksalad plant response rating” value ([21]; Rate 500 g/ha) of the same compound?
**A.** 100

**Q.** And the “Plant response rating, Ducksalad” value ([21]; Rate 62 g/ha)?
**A.** 0

**Q.** What about the “Plant response rating, Ducksalad” value ([21]; Rate 125 g/ha) of the same compound?
**A.** 20

**Q.** What about the “Rice plant response rating” value ([22]; Rate 250 g/ha) of the same compound?
**A.** 50

**Q.** What about the “Rice plant response rating” value ([22]; Rate 500 g/ha) of the same compound?
**A.** 50

**Q.** What about the “Plant response rating, Rice” value ([22]; Rate 62 g/ha) of the same compound?
**A.** 20

**Q.** What about the “Plant response rating, Rice” value ([22]; Rate 125 g/ha) of the same compound?
**A.** 40

**Q.** And the “Flatsedge plant response rating” value ([23]; Rate 250 g/ha)?
**A.** 100

**Q.** What about the “Flatsedge plant response rating” value ([23]; Rate 500 g/ha) of the same compound?
**A.** 100

**Q.** What about the “Plant response rating, Flatsedge” value ([23]; Rate 62 g/ha) of the same compound?
**A.** 0

**Q.** What about the “Plant response rating, Flatsedge” value ([23]; Rate 125 g/ha) of the same compound?
**A.** 100

From patent US7138361B2, “Herbicidal heterocycles” (E. I. du Pont de Nemours and Company, priority 2000, dated 2006)
